Assay results reported in ChEMBL document CHEMBL1133129, “A focused compound library of novel N-(7-indolyl)benzenesulfonamides for the discovery of potent cell cycle inhibitors” (Bioorg Med Chem Lett, 2000).
≈ marks a conversion by molar mass, not a printed value. Calls of active or inactive are those of the source. The rule behind the calls is not given here.

Legend:
P388 [1] = test: In vitro antiproliferative activity measured against P388 cancer cell line using MTT colorimetric assay; type: functional, cell-based; details: Mus musculus
KB [2] = test: In vitro antiproliferative activity measured against KB cancer cell line using MTT colorimetric assay; type: functional, cell-based; details: Homo sapiens
P388 [3] = test: Effect on the cell cycle progression using P388 cells at 4.0 ug/mL for 24 hr; GI increase; type: functional, cell-based; details: Mus musculus
MC-38 [4] = test: In vitro antiproliferative activity measured against colon 38 cancer cell line using MTT colorimetric assay; type: functional, cell-based; details: Mus musculus
P388 [5] = test: Effect on the cell cycle progression using P388 cells at 4.0 ug/mL for 24 hr; No effect; type: functional, cell-based; details: Mus musculus
Tubulin (Bos taurus) [6] = biological target: T1, Tubulin (Bos taurus) (UniProt Q6B856+Q862L2+Q862F3); test: Compound was tested against bovine brain tubulin polymerization; type: functional
P388 [7] = test: Effect on the cell cycle progression using P388 cells at 4.0 ug/mL for 24 hr; G2/M arrest; type: functional, cell-based; details: Mus musculus
KB [8] = test: In vitro antiproliferative activity (4 ug/mL) was measured against KB cancer cell line using MTT colorimetric assay; type: functional, cell-based; details: Homo sapiens
MC-38 [9] = test: In vitro antiproliferative activity (4 ug/mL) was measured against colon 38 cancer cell line using MTT colorimetric assay; type: functional, cell-based; details: Mus musculus
Tubulin (Bos taurus) [10] = biological target: T1, Tubulin (Bos taurus); test: Compound was tested against bovine brain tubulin polymerization; active; type: functional
P388 [11] = test: In vitro antiproliferative activity was measured against P388 cancer cell line using MTT colorimetric assay; details: Mus musculus
P388 [12] = test: Effect on the cell cycle progression using P388 cells at 4.0 ug/mL for 24 hr; G2/M increase; type: functional, cell-based; details: Mus musculus
P388 [13] = test: Effect on the cell cycle progression using P388 cells at 4.0 ug/mL for 24 hr; G2/M arrest & 4C-8C drug treated cells underwent an extra DNA replication without the completion of mitosis; type: functional, cell-based; details: Mus musculus
P388 [14] = test: Concentration at which compound caused cellular accumulation in GI phase in P388 cells; type: functional, cell-based; details: Mus musculus
Bos taurus = organism: Bos taurus; test: Inhibitory activity against bovine microtubule assembly; type: functional
P388 [15] = test: Effect on the cell cycle progression using P388 cells at 4.0 ug/mL for 24 hr; Effect:G2/M arrest & 4C-8C drug treated cells underwent an extra DNA replication without the completion of mitosis; type: functional, cell-based; details: Mus musculus

Row | Structure (SMILES) | IC50 (P388 [1]) | IC50 (KB [2]) | Cell cycle analysis (P388 [3]) | IC50 (MC-38 [4]) | also measured
1 | COc1ccc(S(=O)(=O)Nc2cccnc2Nc2ccc(O)cc2)cc1 |  |  |  |  | Activity (Tubulin (Bos taurus) [6]): Active; Cell cycle analysis (P388 [7]): G2/M arrest
2 | COc1ccc(S(=O)(=O)Nc2cccc3cc(O)[nH]c23)cc1 | 0.11 µg/mL (≈ 0.346 µM) | 0.1 µg/mL (≈ 0.314 µM) |  | 0.22 µg/mL (≈ 0.691 µM) | Cell cycle analysis (P388 [7]): G2/M arrest
3 | COc1ccc(S(=O)(=O)Nc2cccc3cc(Cl)[nH]c23)cc1 |  |  |  |  | IC50 (KB [8]): 0.12 µg/mL (≈ 0.356 µM); IC50 (MC-38 [9]): 0.17 µg/mL (≈ 0.505 µM); Activity (Tubulin (Bos taurus) [10]): Active; IC50 (P388 [11]): 0.11 µg/mL (≈ 0.327 µM); Cell cycle analysis (P388 [7]): G2/M arrest
4 | N#Cc1ccc(S(=O)(=O)Nc2ccc(Cl)c3c(Cl)c[nH]c23)cc1 | 0.59 µg/mL (≈ 1.61 µM) | 13 µg/mL (≈ 35.5 µM) | GI increase | 0.12 µg/mL (≈ 0.328 µM) | 
5 | O=S(=O)(Nc1cccc2cc(Cl)[nH]c12)c1ccc(Cl)cc1 |  |  |  |  | Cell cycle analysis (P388 [12]): G2/M increase; IC50 (KB [8]): 4 µg/mL (≈ 11.7 µM); IC50 (MC-38 [9]): 10 µg/mL (≈ 29.3 µM); Activity (Tubulin (Bos taurus) [10]): Active; IC50 (P388 [11]): 7.4 µg/mL (≈ 21.7 µM)
6 | O=S(=O)(Nc1ccc(Cl)c2cc[nH]c12)c1ccc(Cl)cc1 | 4.6 µg/mL (≈ 13.5 µM) | 9.7 µg/mL (≈ 28.4 µM) | GI increase | 0.66 µg/mL (≈ 1.93 µM) | 
7 | O=S(=O)(Nc1cc(Cl)cc2cc[nH]c12)c1ccc(Cl)cc1 | 9.9 µg/mL (≈ 29 µM) | 9.1 µg/mL (≈ 26.7 µM) |  | 8.5 µg/mL (≈ 24.9 µM) | Cell cycle analysis (P388 [5]): inactive
8 | O=[N+]([O-])c1ccc(S(=O)(=O)Nc2cccc3c(Cl)c[nH]c23)cc1 | 2.3 µg/mL (≈ 6.54 µM) | 14 µg/mL (≈ 39.8 µM) | GI increase | 0.34 µg/mL (≈ 0.967 µM) | 
9 | Nc1ccc(S(=O)(=O)Nc2cccc3cc(O)[nH]c23)cc1 | 1.2 µg/mL (≈ 3.96 µM) | 0.86 µg/mL (≈ 2.84 µM) |  | 1.8 µg/mL (≈ 5.93 µM) | Cell cycle analysis (P388 [13]): G2/M arrest
10 | Nc1ccc(S(=O)(=O)Nc2cccc3cc(Cl)[nH]c23)cc1 | 2.2 µg/mL (≈ 6.84 µM) | 1.4 µg/mL (≈ 4.35 µM) |  | 2.9 µg/mL (≈ 9.01 µM) | Cell cycle analysis (P388 [13]): G2/M arrest
11 | Cc1ccc(NS(=O)(=O)c2ccc(N)cc2)c2[nH]cc(Cl)c12 | 0.37 µg/mL (≈ 1.1 µM) | 16 µg/mL (≈ 47.6 µM) | GI increase | 0.1 µg/mL (≈ 0.298 µM) | 
12 | COc1ccc(S(=O)(=O)Nc2cccc3c(Cl)c[nH]c23)cc1 |  |  |  |  | Cell cycle analysis (P388 [13]): G2/M arrest; Activity (Tubulin (Bos taurus) [10]): Active
13 | Nc1ccc(S(=O)(=O)Nc2ccc(-c3ccccc3)c3c(Cl)c[nH]c23)cc1 | 19 µg/mL (≈ 47.8 µM) | 15 µg/mL (≈ 37.7 µM) |  | 19 µg/mL (≈ 47.8 µM) | Cell cycle analysis (P388 [5]): inactive
14 | Cc1ccc(S(=O)(=O)Nc2cccc3cc(O)[nH]c23)cc1 |  |  |  |  | IC50 (KB [8]): 0.093 µg/mL (≈ 0.308 µM); IC50 (MC-38 [9]): 0.17 µg/mL (≈ 0.562 µM); Activity (Tubulin (Bos taurus) [10]): Active; IC50 (P388 [11]): 0.14 µg/mL (≈ 0.463 µM); Cell cycle analysis (P388 [7]): G2/M arrest
15 | O=[N+]([O-])c1ccc(S(=O)(=O)Nc2ccc(Cl)c3cc[nH]c23)cc1 | 3.3 µg/mL (≈ 9.38 µM) | 9.1 µg/mL (≈ 25.9 µM) | GI increase | 0.67 µg/mL (≈ 1.9 µM) | 
16 | Cc1ccc(S(=O)(=O)Nc2cccc3cc(Cl)[nH]c23)cc1 | 0.14 µg/mL (≈ 0.436 µM) | 0.11 µg/mL (≈ 0.343 µM) |  | 0.18 µg/mL (≈ 0.561 µM) | Cell cycle analysis (P388 [7]): G2/M arrest
17 | O=[N+]([O-])c1ccc(S(=O)(=O)Nc2cccc3cc[nH]c23)cc1 | 8.2 µg/mL (≈ 25.8 µM) | 15 µg/mL (≈ 47.3 µM) |  | 7.2 µg/mL (≈ 22.7 µM) | Cell cycle analysis (P388 [5]): inactive
18 | O=[N+]([O-])c1ccc(S(=O)(=O)Nc2cccc3cc(O)[nH]c23)cc1 | > 100 µg/mL | > 100 µg/mL |  | 62 µg/mL (≈ 186 µM) | Cell cycle analysis (P388 [5]): inactive
19 | O=S(=O)(Nc1cccc2cc[nH]c12)c1ccc(Cl)cc1 |  |  |  |  | Cell cycle analysis (P388 [5]): inactive
20 | Nc1ccc(S(=O)(=O)Nc2cccc3c(Cl)c[nH]c23)cc1 |  |  | GI increase |  | Concentration (P388 [14]): 4 µg/mL; Concentration (Bos taurus): > 33.3 µg/mL
21 | Nc1ccc(S(=O)(=O)Nc2cccc3cc[nH]c23)cc1 |  |  |  |  | Cell cycle analysis (P388 [5]): inactive
22 | COc1ccc(S(=O)(=O)Nc2cccc3cc[nH]c23)cc1 |  |  |  |  | Cell cycle analysis (P388 [15]): Effect
23 | N#Cc1ccc(S(=O)(=O)Nc2ccc(Cl)c3cc[nH]c23)cc1 | 1.8 µg/mL (≈ 5.43 µM) | 15 µg/mL (≈ 45.2 µM) | GI increase | 0.22 µg/mL (≈ 0.663 µM) | 
24 | COc1ccc(NS(=O)(=O)c2ccc(N)cc2)c2[nH]cc(Cl)c12 | 5.5 µg/mL (≈ 15.6 µM) | 20 µg/mL (≈ 56.8 µM) |  | 2.3 µg/mL (≈ 6.54 µM) | Cell cycle analysis (P388 [5]): inactive
25 | N#Cc1ccc(S(=O)(=O)Nc2cccc3c(Cl)c[nH]c23)cc1 |  |  | GI increase |  | 
26 | Nc1ccc(S(=O)(=O)Nc2ccc(F)c3c(Cl)c[nH]c23)cc1 | 0.51 µg/mL (≈ 1.5 µM) | 14 µg/mL (≈ 41.2 µM) | GI increase | 0.11 µg/mL (≈ 0.324 µM) | 

Continued, in another order:

Row | IC50 (P388 [1]) | IC50 (KB [2]) | Structure (SMILES) | Cell cycle analysis (P388 [3]) | IC50 (MC-38 [4]) | also measured
27 | 0.49 µg/mL (≈ 1.38 µM) | 14 µg/mL (≈ 39.3 µM) | Nc1ccc(S(=O)(=O)Nc2ccc(Cl)c3c(Cl)c[nH]c23)cc1 | GI increase | 0.1 µg/mL (≈ 0.281 µM) | 
28 | 21 µg/mL (≈ 59.7 µM) | 18 µg/mL (≈ 51.2 µM) | O=[N+]([O-])c1ccc(S(=O)(=O)Nc2cccc3cc(Cl)[nH]c23)cc1 |  | 19 µg/mL (≈ 54 µM) | Cell cycle analysis (P388 [5]): inactive
29 | 4.3 µg/mL (≈ 12.6 µM) | 8.8 µg/mL (≈ 25.8 µM) | O=S(=O)(Nc1cccc2c(Cl)c[nH]c12)c1ccc(Cl)cc1 | GI increase | 0.28 µg/mL (≈ 0.821 µM) | 
30 | 0.64 µg/mL (≈ 1.6 µM) | 13 µg/mL (≈ 32.4 µM) | Nc1ccc(S(=O)(=O)Nc2ccc(Br)c3c(Cl)c[nH]c23)cc1 | GI increase | 0.14 µg/mL (≈ 0.349 µM) | 
31 | 13 µg/mL (≈ 37 µM) | 12 µg/mL (≈ 34.1 µM) | O=[N+]([O-])c1ccc(S(=O)(=O)Nc2cc(Cl)cc3cc[nH]c23)cc1 |  | 13 µg/mL (≈ 37 µM) | Cell cycle analysis (P388 [5]): inactive
32 | 0.27 µg/mL (≈ 0.802 µM) | 0.21 µg/mL (≈ 0.624 µM) | COc1ccc(S(=O)(=O)Nc2cc(Cl)cc3cc[nH]c23)cc1 |  | 0.64 µg/mL (≈ 1.9 µM) | Cell cycle analysis (P388 [7]): G2/M arrest
33 | 1.1 µg/mL (≈ 3.27 µM) | 0.92 µg/mL (≈ 2.73 µM) | COc1ccc(S(=O)(=O)Nc2ccc(Cl)c3cc[nH]c23)cc1 |  | 0.65 µg/mL (≈ 1.93 µM) | Cell cycle analysis (P388 [15]): Effect
34 | 2.2 µg/mL (≈ 6.82 µM) | 1.1 µg/mL (≈ 3.41 µM) | O=S(=O)(Nc1cccc2cc(O)[nH]c12)c1ccc(Cl)cc1 |  | 4.5 µg/mL (≈ 13.9 µM) | Cell cycle analysis (P388 [13]): G2/M arrest
